Data published in article PMC3475717, “A Spiroligomer α-Helix Mimic That Binds HDM2, Penetrates Human Cells and Stabilizes HDM2 in Cell Culture” (PLoS ONE, 2012).
Entries after “also recorded” stand apart in the source; their conditions may differ.

Columns and labels:
Huh7 cells = assay: cell penetration, fluorescence and confocal microscopy; type: cell-based, human; conditions: Huh7, 37°C
Procedure: Table S.7. Parameters used for the non-linear fit for the plot of the competition binding experiment.
(§1) Cell Culture and Treatment. HepG2 (expressing wild-type p53) and Huh7 (expressing mutant p53) cell lines were purchased from the American Type Culture Collection (ATCC) and cultured as monolayers in Dulbecco’s modified Eagle’s medium (DMEM) (Invitrogen) supplemented with 100 mM nonessential amino acid solution, 100 mM sodium pyruvate, 100 U/mL penicillin, 100 μg/mL streptomycin, and 10% heat inactivated fetal bovine serum (FBS) (all from Hyclone).
(§2) Cells were maintained at 37° C and 5% CO2 and were treated with media that contained 0.5%
(§3) FBS. Nutlin-3 (Sigma) was dissolved in 0.01% DMSO (Sigma). This concentration of DMSO did not affect the cell phenotype. Both nutlin-3 and spiroligomers were added into the medium for final concentrations of 2 µM, 5 µM, 10 µM and 20 µM for 24 hours. For the western blot experiments detailed below, the time length for incubation with bis-peptide was 17 hours.
Fluorescence and Confocal Microscopy. Fluorescence and confocal microscopy were applied to live and fixed cells. Cells were grown on glass chambers and fixed with ice-cold 95:5 ethanol/acetic acid for 10 minutes at -20 °C. […] Fluorescent specimens were analyzed using an ECLIPSE Ti microscope (Nikon), lenses with hardened […]
Western Blotting. […] Images were quantified using ImageJ software (NIH). […]

HepG2 cells = assay: cell penetration, fluorescence and confocal microscopy; active vs. passive transport; type: cell-based, human; conditions: HepG2, 37°C, 5 µM, 3.75 hours
Procedure: as §1, §2, §3
Fluorescence and Confocal Microscopy. Fluorescence and confocal microscopy were applied to live and fixed cells. Cells were grown on glass chambers and fixed with ice-cold 95:5 ethanol/acetic acid for 10 minutes at -20 °C. Sections were washed with PBS and mounted in Vectashield aqueous mounting medium with DAPI (Vector laboratories). Fluorescent specimens were analyzed using an ECLIPSE Ti microscope (Nikon), lenses with hardened […]
(1 picture or pasted object on this page, not shown here) […]
filters (Nikon), and a Nikon DS-Fi1 camera, which was operated by NIS Elements computer software (Nikon). Confocal microscopy was performed with a Leica SP-1 microscope, with illumination at 488 nm and spectral detection. […]
Mathematical model described8 and MxPro software (Stratagene) were used to process PCR data. End-point PCR reactions were assayed with PCR Master Mix (Promega). Samples were amplified in 34 cycles; each cycle consisted of 30 sec of denaturation at 95 °C, 30 sec of annealing at 60 °C, and 30 sec of elongation at 72 °C. After 34 cycles, samples were subjected to final elongation for 5 minutes at 72 °C. […]
fluorescence in the images.

Question: Which “uptake of fluorescence (control)” value (Huh7 cells) does the source give for `O=C1OC2(c3ccc(O)cc3Oc3cc(O)ccc32)c2ccccc21` [fluorescein, reference compound] here?
Answer: no visible uptake of fluorescence

Question: What about the “uptake of fluorescence (control)” value (HepG2 cells) of the same molecule?
Answer: no visible uptake of fluorescence; also recorded: failed to produce any fluorescence
